For experiment [1], the system named is T. cruzi amastigote (Td Tomato-modified) in Vero cells. Nature of the experiment: In vitro IC50 measurement of T. cruzi amastigote killing using Td Tomato-modified T. cruzi. Type of experiment: cell-based. Conditions: Trypanosoma cruzi, 72 h, fluorescence, read-out: IC50: I Org. amastigote Growth T. cruzi 3 d. In short, it runs like this: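 IC50/IC90 came from nonlinear regression of Day 3 minus Day 0 fluorescence (544/612 nm), correcting for input parasites. Final compound concentrations spanned 5 nM–5 uM on Td Tomato T. cruzi-infected Vero cells, 72 h at 37 °C.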

Experiment [2] relates to IL3000 T. congolense (drug sensitive) strain. Nature of the experiment: In vitro Alamar Blue 72 h drug sensitivity assay for T. congolense. Type of experiment: cell-based, Trypanosoma congolense. Conditions: Trypanosoma congolense, 72 h, bloodstream form, 69 h + 3 h Resazurin, 34° C., read-out: IC50: I Org. Growth T. congolense 3 d. As for the experimental part:
Example 252. In Vitro Alamar Blue 72 h Drug Sensitivity Assay for T. congolense
Compounds were tested in vitro for chemotherapeutic potency against the IL3000 T. congolense (drug sensitive) strain, using the Alamar Blue assay with several modifications. Test compounds were prepared as 10 mg/mL DMSO stocks for each assay run. Compounds were assayed in at least three separate, independent test runs and an 11-point dilution curve was used to determine the IC50 values. Bloodstream form trypanosomes were supported in HMI media containing 20% bovine serum and were incubated with test compounds for 69 h at 34° C. in a humidified atmosphere containing 5% CO2. Thereafter, 10 μL of Resazurin dye (12.5 mg in 100 mL of phosphate buffered saline, Sigma-Aldrich, Buchs, Switzerland) were added for an additional 3 h. Plates were then read using a fluorescent plate reader (Spectramax, Gemini XS, Bucher Biotec, Basel, Switzerland) using an excitation wavelength of 536 nm and an emission wavelength of 588 nm. Data points were averaged to generate sigmoidal dose-response curves and IC50 values were determined using Softmax Pro 5.2 software.

Usually IC50 stands for the concentration needed to halve the response being measured. On to `Cc1c(C(=O)N[C@H](C(=O)OCc2ccc(C(F)(F)F)cn2)C(C)C)ccc2c1B(O)OC2` [Example 6-171, (5-(trifluoromethyl)pyridin-2-yl)methyl (1-hydroxy-7-methyl-1,3-dihydrobenzo[c][1,2]oxaborole-6-carbonyl)-L-valinate], for which the IC50 in experiment [1] is ≤ 20 nM; in experiment [2], < 0.5 nM.

With `CC(C)[C@H](NC(=O)c1ccc2c(c1F)B(O)OC2)C(=O)OCc1ccc(F)cc1` [Example 6-036, 4-Fluorobenzyl (7-fluoro-1-hydroxy-1,3-dihydrobenzo[c][1,2]oxaborole-6-carbonyl)-L-valinate], the IC50 fell in the range of 21 to 999 nM in experiment [1] and 10 to 5000 nM in experiment [2].

Consider `CC(C)[C@H](NC(=O)c1ccc2c(c1C(F)F)B(O)OC2)C(=O)OCc1ccc(F)cc1` [Example 6-073, 4-Fluorobenzyl (7-(difluoromethyl)-1-hydroxy-1,3-dihydrobenzo[c][1,2]oxaborole-6-carbonyl)-L-valinate], for which the results for the concentration for half-maximal inhibition (IC50) in experiment [1] and in experiment [2] were ≤ 20 nM and 0.51 to 9.99 nM, respectively.

As to `Cc1c(C(=O)N[C@H](C(=O)OC2CCCC2)C(C)C)ccc2c1B(O)OC2` [Example 6-132, Cyclopentyl (1-hydroxy-7-methyl-1,3-dihydrobenzo[c][1,2]oxaborole-6-carbonyl)-L-valinate], the figures for the IC50 in experiment [1] and in experiment [2] were ≤ 20 nM and < 0.5 nM, respectively.

Take `Cc1c(C(=O)N[C@H](C(=O)OC2CCN(C)CC2)C(C)C)ccc2c1B(O)OC2` [Example 6-142, 1-Methylpiperidin-4-yl (1-hydroxy-7-methyl-1,3-dihydrobenzo[c][1,2]oxaborole-6-carbonyl)-L-valinate]: the IC50 is 21 to 999 nM in experiment [1] and < 0.5 nM in experiment [2].

`Cc1c(C(=O)N[C@H](C(=O)OCc2cccc(CN3CCNCC3)c2)C(C)C)ccc2c1B(O)OC2` [Example 6-117, 3-(Piperazin-1-ylmethyl)benzyl (1-hydroxy-7-methyl-1,3-dihydrobenzo[c][1,2]oxaborole-6-carbonyl)-L-valinate]: the results for the IC50 in experiment [1] and in experiment [2] were ≥ 1000 nM and 10 to 5000 nM, respectively.

For `Cc1c(C(=O)N[C@H](C(=O)O[C@H]2CCOC2)C(C)C)ccc2c1B(O)OC2` [Example 6-140, (S)-Tetrahydrofuran-3-yl (1-hydroxy-7-methyl-1,3-dihydrobenzo[c][1,2]oxaborole-6-carbonyl)-L-valinate], the IC50 fell in the range of 21 to 999 nM in experiment [1] and 0.51 to 9.99 nM in experiment [2].

Take `Cc1c(C(=O)N[C@H](C(=O)OCc2ccc(S(=O)(=O)C(C)C)cc2)C(C)C)ccc2c1B(O)OC2` [Example 6-092, 4-(Isopropylsulfonyl)benzyl (1-hydroxy-7-methyl-1,3-dihydrobenzo[c][1,2]oxaborole-6-carbonyl)-L-valinate]: the IC50 in experiment [1] was 21 to 999 nM; in experiment [2], < 0.5 nM.

`Cc1c(C(=O)N[C@H](C(=O)OCc2cc(F)c(F)c(F)c2)C(C)(C)O)ccc2c1B(O)OC2` [Example 6-101, 3,4,5-Trifluorobenzyl(S)-3-hydroxy-2-(1-hydroxy-7-methyl-1,3-dihydrobenzo[c][1,2]oxaborole-6-carboxamido)-3-methylbutanoate]: the IC50 was ≤ 20 nM in experiment [1] and < 0.5 nM in experiment [2].

Take `Cc1c(C(=O)N[C@H](C(=O)OCC2(O)CCCCC2)C(C)C)ccc2c1B(O)OC2` [Example 6-229, (1-hydroxycyclohexyl)methyl (1-hydroxy-7-methyl-1,3-dihydrobenzo[c][1,2]oxaborole-6-carbonyl)-L-valinate]: the IC50 was ≤ 20 nM in experiment [1] and < 0.5 nM in experiment [2].

As to `CC(C)[C@H](NC(=O)c1ccc2c(c1)B(O)OC2)C(=O)OCc1ccccc1` [Example 6-005, Benzyl (1-hydroxy-1,3-dihydrobenzo[c][1,2]oxaborole-6-carbonyl)-L-valinate], the concentration for half-maximal inhibition (IC50) in experiment [1] lay within 21 to 999 nM; in experiment [2], 0.51 to 9.99 nM.

In the case of `Cc1c(C(=O)N[C@H](C(=O)OCc2ccc(C(=O)NCCN(C)C)cc2)C(C)C)ccc2c1B(O)OC2` [Example 6-103, 4-((2-(Dimethylamino)ethyl)carbamoyl)benzyl (1-hydroxy-7-methyl-1,3-dihydrobenzo[c][1,2]oxaborole-6-carbonyl)-L-valinate], the IC50 in experiment [1] was ≥ 1000 nM; in experiment [2], 10 to 5000 nM.

On to `Cc1c(C(=O)N[C@H](C(=O)OCc2ccc(Cl)cc2)C(C)C)ccc2c1B(O)OC2` [Example 6-040, 4-Chlorobenzyl (1-hydroxy-7-methyl-1,3-dihydrobenzo[c][1,2]oxaborole-6-carbonyl)-L-valinate], for which the IC50 in experiment [1] was ≤ 20 nM; in experiment [2] it was < 0.5 nM.

As for `Cc1c(C(=O)N[C@H](C(=O)OCc2cccc(C#N)n2)C(C)C)ccc2c1B(O)OC2` [Example 6-189, (6-cyanopyridin-2-yl)methyl (1-hydroxy-7-methyl-1,3-dihydrobenzo [c][1,2]oxaborole-6-carbonyl)-L-valinate], the IC50 in experiment [1] is ≤ 20 nM; in experiment [2] it was < 0.5 nM.

On to `Cc1c(C(=O)N[C@H](C(=O)OCc2cccc(CN(C)C)c2)C(C)C)ccc2c1B(O)OC2` [Example 6-081, 3-((Dimethylamino)methyl)benzyl (1-hydroxy-7-methyl-1,3-dihydrobenzo[c][1,2]oxaborole-6-carbonyl)-L-valinate], for which the figures for the IC50 in experiment [1] and in experiment [2] were 21 to 999 nM and < 0.5 nM, respectively.

Consider `Cc1c(C(=O)NC2(C(=O)OCc3ccc(F)cc3)CCC2)ccc2c1B(O)OC2` [Example 6-066, 4-Fluorobenzyl 1-(1-hydroxy-7-methyl-1,3-dihydrobenzo[c][1,2]oxaborole-6-carboxamido)cyclobutane-1-carboxylate], for which the IC50 in experiment [1] is ≤ 20 nM; in experiment [2], < 0.5 nM.

In the case of `Cc1c(C(=O)N[C@H](C(=O)OCc2ccc(S(C)(=O)=O)cc2)C(C)C)ccc2c1B(O)OC2` [Example 6-056, 4-(Methylsulfonyl)benzyl (1-hydroxy-7-methyl-1,3-dihydrobenzo[c][1,2]oxaborole-6-carbonyl)-L-valinate], the IC50 in experiment [1] was in the range of 21 to 999 nM; in experiment [2] it was 0.51 to 9.99 nM.

With `Cc1c(C(=O)N[C@H](C(=O)OCc2ccc(S(=O)(=O)N3CCN(C)CC3)cc2)C(C)C)ccc2c1B(O)OC2` [Example 6-085, 4-((4-Methylpiperazin-1-yl)sulfonyl)benzyl (1-hydroxy-7-methyl-1,3-dihydrobenzo[c][1,2]oxaborole-6-carbonyl)-L-valinate], the values for the IC50 in experiment [1] and in experiment [2] were 21 to 999 nM and 0.51 to 9.99 nM, respectively.

Take `Cc1c(C(=O)N[C@H](C(=O)OCc2c[nH]cn2)C(C)C)ccc2c1B(O)OC2` [Example 6-138, (1H-Imidazol-4-yl)methyl (1-hydroxy-7-methyl-1,3-dihydrobenzo[c][1,2]oxaborole-6-carbonyl)-L-valinate]: the values for the IC50 in experiment [1] and in experiment [2] were ≥ 1000 nM and 10 to 5000 nM, respectively.

In the case of `Cc1c(C(=O)N[C@H](C(=O)OC(C)C)C(C)C)ccc2c1B(O)OC2` [Example 6-112, Isopropyl (1-hydroxy-7-methyl-1,3-dihydrobenzo[c][1,2]oxaborole-6-carbonyl)-L-valinate], the results for the IC50 in experiment [1] and in experiment [2] were ≤ 20 nM and 0.51 to 9.99 nM, respectively.

Take `Cc1c(C(=O)N[C@H](C(=O)OCc2ccc(S(=O)(=O)N3CCOCC3)cc2)C(C)C)ccc2c1B(O)OC2` [Example 6-086, 4-(Morpholinosulfonyl)benzyl (1-hydroxy-7-methyl-1,3-dihydrobenzo[c][1,2]oxaborole-6-carbonyl)-L-valinate]: the IC50 in experiment [1] was 21 to 999 nM; in experiment [2], < 0.5 nM.

For the molecule `Cc1c(C(=O)N[C@H](C(=O)O[C@@H]2CCOC2)C(C)C)ccc2c1B(O)OC2` [Example 6-141, (R)-Tetrahydrofuran-3-yl (1-hydroxy-7-methyl-1,3-dihydrobenzo[c][1,2]oxaborole-6-carbonyl)-L-valinate], the figures for the IC50 in experiment [1] and in experiment [2] were 21 to 999 nM and < 0.5 nM, respectively.

As for `Cc1c(C(=O)N[C@H](C(=O)OC(C(F)(F)F)C(F)(F)F)C(C)C)ccc2c1B(O)OC2` [Example 6-156, 1,1,1,3,3,3-Hexafluoropropan-2-yl (1-hydroxy-7-methyl-1,3-dihydrobenzo[c][1,2]oxaborole-6-carbonyl)-L-valinate], the 50% inhibitory concentration (IC50) is ≥ 1000 nM in experiment [1] and 10 to 5000 nM in experiment [2].

For the molecule `Cc1c(C(=O)N[C@H](C(=O)OCc2ccc(OCCN3CCOCC3)cc2)C(C)C)ccc2c1B(O)OC2` [Example 6-247, 4-(2-Morpholinoethoxy)benzyl(1-hydroxy-7-methyl-1,3-dihydrobenzo[c][1,2]oxaborole-6-carbonyl)-L-valinate], the IC50 was ≤ 20 nM in experiment [1] and 0.51 to 9.99 nM in experiment [2].

Take `Cc1c(C(=O)NC2(C(=O)OCC3CCCC3)COC2)ccc2c1B(O)OC2` [Example 6-224, Cyclopentylmethyl 3-(1-hydroxy-7-methyl-1,3-dihydrobenzo[c][1,2]oxaborole-6-carboxamido)oxetane-3-carboxylate]: the IC50 in experiment [1] was ≤ 20 nM; in experiment [2], 0.51 to 9.99 nM.

On to `Cc1c(C(=O)N[C@H](C(=O)OCc2ccc(OCCN3CCCC3)c(F)c2)C(C)C)ccc2c1B(O)OC2` [Example 6-242, 3-Fluoro-4-(2-(pyrrolidin-1-yl)ethoxy)benzyl (1-hydroxy-7-methyl-1,3-dihydrobenzo[c][1,2]oxaborole-6-carbonyl)-L-valinate], for which the IC50 in experiment [1] was ≤ 20 nM; in experiment [2], 0.51 to 9.99 nM.

These data come from US11578087B2, “Oxaborole esters and uses thereof” (priority 2016, dated 2023).
